From patent publication US20120064135A1, “Benzoyl Peroxide Composition, Methods for Making Same, and Pharmaceutical or Cosmetic Formulations Comprising Same, and Uses Thereof” (Norac Pharma, priority 2010, published 2012)

How the values were obtained:
[1] = Stability of tazarotene with BP-CB or BPO in polyacrylic acid gel, stored at 30° C., HPLC peak area; assay type: physicochemical; conditions: after 834 h at 30° C.; with tazarotene in polyacrylic acid (PAA) gel
Description: These stability studies are set up to examine BP-CB/BPO with various APIs in aqueous gel formulations. In one study, tazarotene is used as the API. Tazarotene and BP-CB or BPO are placed into a polyacrylic acid (PAA) gel in vials and stored at 30° C. The vials are analyzed by HPLC and the area from the tazarotene peak is monitored. […] These values are compared on the area from the To results.
(§1) BPO Study—Polyacrylic acid gel is prepared by stirring polyacrylic acid (2.5 g) in deionized water (100 mL) at 50° C. for 2 h. The gel is allowed to cool to ambient temperature. The gel (500 mg) is weighed out into each of the 4-dram vials. Into the same vials is placed hydrous benzoyl peroxide (390 mg, 74.6% by wt) and tazarotene (375 mg). The contents are mixed thoroughly then the vials are stored at 30° C.
as §1, with “BP-CB” for “BPO”, “BP-CB (447” for “hydrous benzoyl peroxide (390”, “65% BPO” for “74.6%”
Analysis—At certain time points, the vials are analyzed by HPLC. […] For To, a vial is removed and analyzed before the samples are heated to 30° C. […]

[2] = Stability of clindamycin hydrochloride mixed with BP-CB or BPO, stored in vials at 30° C., HPLC peak area; assay type: physicochemical; conditions: after 216 h at 30° C.
Description: The stability of the benzoyl peroxide (BP-CB) formulation of the present invention is compared with benzoyl peroxide (BPO) in non-invention drug formulations. In one study, clindamycin hydrochloride is used as the API. Clindamycin hydrochloride and BP-CB or BPO are placed in vials and stored at 30° C. The vials are analyzed by HPLC and the area from the clindamycin hydrochloride peak is monitored. […] These values are in comparison to the area from the T0 results. BPO Study—Into clear one dram vials is placed hydrous benzoyl peroxide (26 mg, 75.0% by wt) and clindamycin hydrochloride (20 mg). The contents are mixed thoroughly. Then the vials are stored at 30° C. BP-CB Study—Into clear one dram vials is placed BP-CB (30 mg, 65% BPO by wt) and clindamycin hydrochloride (20 mg). The contents are mixed thoroughly then the vials are stored at 30° C. Analysis—At certain time points, the vials are analyzed by HPLC. Prior to analysis, a mixture of methanol and acetonitrile (10 mL total, 1:1 by volume) is added to dissolve the contents of the vial. The solution is used for HPLC analysis. For T0, a vial is removed and analyzed before the samples are heated to 30° C. • To prepare 1 L solution, transfer 1000 mL DI water into a suitable reservoir. Add 6.81 g of KH2PO4, and then adjust pH to 3.1 with H3PO4. Mix well. Degas solution thoroughly before use. [table]

[3] = cited from earlier work

decrease of HPLC area of the tazarotene peak compared to T0 [1] | decrease of HPLC area of the clindamycin hydrochloride peak in comparison to T0 [2] | SMILES | pKa [3]
88% | 87.0% | O=C(OOC(=O)c1ccccc1)c1ccccc1 [BPO, benzoyl peroxide] | 
 |  | CC1=C(/C=C/C(C)=C/C=C/C(C)=C/C(=O)O)C(C)(C)CCC1 [tretinoin] | 3.8
